Laboratory results: US12479847B2 (DANA-FARBER CANCER INSTITUTE, INC., priority 2019, dated 2025)

Columns and labels:
Experiment in all cases: KINOMEscan (ScanMAX) kinase profiling
Type in all cases: binding
panel of 468 kinases [1] = biological target: T1, panel of 468 kinases (Homo sapiens, UniProt O96017); settings: CHEK2; 1 μM; read-out: % control
T1 construct: purchased KINOMEscan (ScanMAX) service

panel of 468 kinases [2] = biological target: T2, panel of 468 kinases (Homo sapiens, UniProt P11309); settings: PIM1; 1 μM; read-out: % control
T2 construct: purchased KINOMEscan (ScanMAX) service
T2 sequence (P11309 whole entry): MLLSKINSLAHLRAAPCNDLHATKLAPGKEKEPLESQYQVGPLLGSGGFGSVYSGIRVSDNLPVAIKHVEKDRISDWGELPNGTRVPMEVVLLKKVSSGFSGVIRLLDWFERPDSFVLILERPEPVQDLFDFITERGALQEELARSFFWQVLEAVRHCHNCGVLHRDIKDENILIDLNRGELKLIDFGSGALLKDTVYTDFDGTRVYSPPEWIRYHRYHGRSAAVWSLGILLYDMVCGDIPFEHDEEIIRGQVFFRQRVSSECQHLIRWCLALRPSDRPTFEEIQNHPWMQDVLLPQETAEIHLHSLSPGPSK

panel of 468 kinases [3] = biological target: T3, panel of 468 kinases (Homo sapiens, UniProt P32298); settings: GRK4; 1 μM; read-out: % control
T3 construct: purchased KINOMEscan (ScanMAX) service
T3 sequence (P32298 whole entry): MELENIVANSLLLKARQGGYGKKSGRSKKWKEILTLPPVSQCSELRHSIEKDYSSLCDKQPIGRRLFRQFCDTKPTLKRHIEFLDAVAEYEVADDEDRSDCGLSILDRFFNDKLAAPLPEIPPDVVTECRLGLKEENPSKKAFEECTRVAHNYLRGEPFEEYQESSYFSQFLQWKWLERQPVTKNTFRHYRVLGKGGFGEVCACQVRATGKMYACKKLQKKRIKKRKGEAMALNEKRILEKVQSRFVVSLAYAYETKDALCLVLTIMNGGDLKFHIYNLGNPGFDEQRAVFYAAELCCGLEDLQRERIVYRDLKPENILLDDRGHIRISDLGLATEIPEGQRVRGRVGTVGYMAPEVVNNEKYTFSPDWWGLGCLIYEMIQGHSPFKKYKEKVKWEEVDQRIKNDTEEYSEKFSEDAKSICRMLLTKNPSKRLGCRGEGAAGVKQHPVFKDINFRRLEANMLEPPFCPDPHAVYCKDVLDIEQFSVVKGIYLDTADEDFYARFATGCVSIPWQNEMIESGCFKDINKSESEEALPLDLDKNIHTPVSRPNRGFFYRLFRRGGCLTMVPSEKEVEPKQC

panel of 468 kinases [4] = biological target: T4, panel of 468 kinases (Homo sapiens, UniProt P36896); settings: ACVR1B; 1 μM; read-out: % control
T4 construct: purchased KINOMEscan (ScanMAX) service
T4 sequence (P36896 24-505): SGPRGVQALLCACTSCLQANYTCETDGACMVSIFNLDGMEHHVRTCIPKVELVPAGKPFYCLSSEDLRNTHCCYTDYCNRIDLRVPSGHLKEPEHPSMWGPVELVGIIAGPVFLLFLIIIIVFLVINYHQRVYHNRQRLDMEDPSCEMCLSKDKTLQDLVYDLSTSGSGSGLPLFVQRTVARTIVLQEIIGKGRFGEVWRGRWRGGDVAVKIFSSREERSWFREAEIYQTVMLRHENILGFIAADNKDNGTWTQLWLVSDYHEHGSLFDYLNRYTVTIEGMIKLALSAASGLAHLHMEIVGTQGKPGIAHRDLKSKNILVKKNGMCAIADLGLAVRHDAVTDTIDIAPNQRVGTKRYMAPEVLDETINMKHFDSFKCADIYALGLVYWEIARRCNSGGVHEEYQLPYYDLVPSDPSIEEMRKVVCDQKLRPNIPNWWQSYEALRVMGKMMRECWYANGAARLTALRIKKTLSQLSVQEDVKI

panel of 468 kinases [5] = biological target: T5, panel of 468 kinases (Homo sapiens, UniProt P42684); settings: ABL2; 1 μM; read-out: % control
T5 construct: purchased KINOMEscan (ScanMAX) service
T5 sequence (P42684 whole entry): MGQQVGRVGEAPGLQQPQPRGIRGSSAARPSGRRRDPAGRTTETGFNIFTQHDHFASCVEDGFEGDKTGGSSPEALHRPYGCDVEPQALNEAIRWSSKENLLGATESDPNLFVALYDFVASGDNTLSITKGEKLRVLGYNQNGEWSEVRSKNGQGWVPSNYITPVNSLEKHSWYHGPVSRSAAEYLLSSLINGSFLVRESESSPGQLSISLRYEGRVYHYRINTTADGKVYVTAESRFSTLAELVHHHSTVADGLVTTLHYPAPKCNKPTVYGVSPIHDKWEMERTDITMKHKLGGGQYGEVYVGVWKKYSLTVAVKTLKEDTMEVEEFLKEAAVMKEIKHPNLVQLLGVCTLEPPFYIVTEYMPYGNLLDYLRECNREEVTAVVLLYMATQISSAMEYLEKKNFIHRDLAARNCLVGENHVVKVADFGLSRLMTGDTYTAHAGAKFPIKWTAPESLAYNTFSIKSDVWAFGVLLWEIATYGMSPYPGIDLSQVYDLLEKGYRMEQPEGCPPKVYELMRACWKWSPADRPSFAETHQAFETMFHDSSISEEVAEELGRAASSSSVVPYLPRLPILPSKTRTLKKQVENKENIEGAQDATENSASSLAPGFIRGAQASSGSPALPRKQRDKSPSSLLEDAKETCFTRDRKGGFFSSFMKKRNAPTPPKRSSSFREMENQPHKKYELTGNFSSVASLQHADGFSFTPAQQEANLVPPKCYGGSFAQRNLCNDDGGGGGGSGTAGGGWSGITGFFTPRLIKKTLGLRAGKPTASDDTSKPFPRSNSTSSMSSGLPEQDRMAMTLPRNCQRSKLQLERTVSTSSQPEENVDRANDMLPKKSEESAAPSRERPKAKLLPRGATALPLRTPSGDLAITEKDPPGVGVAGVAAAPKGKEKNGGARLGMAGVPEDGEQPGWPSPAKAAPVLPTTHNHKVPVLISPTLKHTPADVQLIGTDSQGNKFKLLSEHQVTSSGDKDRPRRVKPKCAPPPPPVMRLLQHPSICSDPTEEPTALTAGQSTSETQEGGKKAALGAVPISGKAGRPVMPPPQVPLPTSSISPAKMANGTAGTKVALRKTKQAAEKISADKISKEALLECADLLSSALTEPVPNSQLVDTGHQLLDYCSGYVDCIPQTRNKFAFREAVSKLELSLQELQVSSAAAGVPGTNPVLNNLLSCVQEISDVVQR

panel of 468 kinases [6] = biological target: T6, panel of 468 kinases (Homo sapiens, UniProt Q02750); settings: MEK1; 1 μM; read-out: % control
T6 construct: purchased KINOMEscan (ScanMAX) service
T6 sequence (Q02750 whole entry): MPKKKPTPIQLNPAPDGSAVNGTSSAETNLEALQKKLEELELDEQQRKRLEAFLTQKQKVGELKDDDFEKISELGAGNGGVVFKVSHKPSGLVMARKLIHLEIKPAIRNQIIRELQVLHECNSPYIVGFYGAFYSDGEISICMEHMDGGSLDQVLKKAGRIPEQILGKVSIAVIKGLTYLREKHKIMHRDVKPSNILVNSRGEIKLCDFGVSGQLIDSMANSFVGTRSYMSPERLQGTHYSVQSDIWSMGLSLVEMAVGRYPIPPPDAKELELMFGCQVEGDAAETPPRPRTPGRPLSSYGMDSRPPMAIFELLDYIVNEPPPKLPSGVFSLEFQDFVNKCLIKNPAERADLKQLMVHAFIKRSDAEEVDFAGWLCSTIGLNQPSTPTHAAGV

panel of 468 kinases [7] = biological target: T7, panel of 468 kinases (Homo sapiens, UniProt Q15139); settings: PRKD1; 1 μM; read-out: % control
T7 construct: purchased KINOMEscan (ScanMAX) service
T7 sequence (Q15139 1-912): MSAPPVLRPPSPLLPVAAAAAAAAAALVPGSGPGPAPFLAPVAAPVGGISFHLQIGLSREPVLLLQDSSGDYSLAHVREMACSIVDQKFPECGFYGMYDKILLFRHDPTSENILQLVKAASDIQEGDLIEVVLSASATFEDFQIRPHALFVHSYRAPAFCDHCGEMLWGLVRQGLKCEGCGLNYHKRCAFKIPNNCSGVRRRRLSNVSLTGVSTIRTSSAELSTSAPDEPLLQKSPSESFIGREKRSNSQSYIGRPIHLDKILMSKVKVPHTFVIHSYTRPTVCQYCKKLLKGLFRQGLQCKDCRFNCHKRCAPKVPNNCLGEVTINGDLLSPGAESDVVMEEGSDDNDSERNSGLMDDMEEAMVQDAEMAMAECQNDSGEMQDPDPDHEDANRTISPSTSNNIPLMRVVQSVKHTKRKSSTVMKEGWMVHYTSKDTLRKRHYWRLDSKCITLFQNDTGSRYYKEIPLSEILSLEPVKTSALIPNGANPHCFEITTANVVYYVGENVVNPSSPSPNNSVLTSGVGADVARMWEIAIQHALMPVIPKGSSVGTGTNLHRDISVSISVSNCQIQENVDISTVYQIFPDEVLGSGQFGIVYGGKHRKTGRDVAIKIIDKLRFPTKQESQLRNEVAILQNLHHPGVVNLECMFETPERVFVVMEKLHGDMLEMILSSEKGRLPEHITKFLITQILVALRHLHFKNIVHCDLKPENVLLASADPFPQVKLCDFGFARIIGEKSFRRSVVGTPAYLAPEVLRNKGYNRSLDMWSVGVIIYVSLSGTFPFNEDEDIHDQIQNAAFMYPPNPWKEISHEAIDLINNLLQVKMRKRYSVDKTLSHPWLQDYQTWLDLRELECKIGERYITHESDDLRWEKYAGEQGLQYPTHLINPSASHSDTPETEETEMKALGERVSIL

panel of 468 kinases [8] = biological target: T8, panel of 468 kinases (Homo sapiens, UniProt Q6PHR2); settings: ULK3; 1 μM; read-out: % control
T8 construct: purchased KINOMEscan (ScanMAX) service
T8 sequence (Q6PHR2 1-472): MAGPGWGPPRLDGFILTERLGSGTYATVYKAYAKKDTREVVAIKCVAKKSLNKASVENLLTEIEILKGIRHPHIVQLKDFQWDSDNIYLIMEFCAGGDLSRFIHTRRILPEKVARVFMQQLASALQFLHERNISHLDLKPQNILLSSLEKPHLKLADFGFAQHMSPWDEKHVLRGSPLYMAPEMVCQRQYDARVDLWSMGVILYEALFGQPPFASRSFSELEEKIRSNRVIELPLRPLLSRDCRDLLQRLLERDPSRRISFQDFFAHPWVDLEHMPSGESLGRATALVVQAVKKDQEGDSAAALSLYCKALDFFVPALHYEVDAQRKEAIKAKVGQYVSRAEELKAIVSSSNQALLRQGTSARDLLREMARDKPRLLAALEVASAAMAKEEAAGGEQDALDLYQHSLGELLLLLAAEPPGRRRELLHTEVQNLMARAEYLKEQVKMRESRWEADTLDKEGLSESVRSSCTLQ

panel of 468 kinases [9] = biological target: T9, panel of 468 kinases (Homo sapiens, UniProt Q9UQM7); settings: CAMK2A; 1 μM; read-out: % control
T9 construct: purchased KINOMEscan (ScanMAX) service
T9 sequence (Q9UQM7 whole entry): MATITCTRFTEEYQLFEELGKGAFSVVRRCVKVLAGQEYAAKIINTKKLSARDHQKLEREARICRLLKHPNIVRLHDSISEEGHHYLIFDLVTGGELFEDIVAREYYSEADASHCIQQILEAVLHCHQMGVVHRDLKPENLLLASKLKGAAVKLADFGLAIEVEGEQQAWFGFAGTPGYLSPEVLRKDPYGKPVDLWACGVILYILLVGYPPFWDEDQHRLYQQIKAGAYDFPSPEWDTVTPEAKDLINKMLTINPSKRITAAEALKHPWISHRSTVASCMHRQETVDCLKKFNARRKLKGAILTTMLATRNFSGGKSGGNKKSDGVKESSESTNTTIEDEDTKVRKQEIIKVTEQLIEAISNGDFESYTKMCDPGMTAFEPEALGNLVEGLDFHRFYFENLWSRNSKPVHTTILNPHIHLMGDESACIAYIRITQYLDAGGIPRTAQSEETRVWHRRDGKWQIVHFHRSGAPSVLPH

panel of 468 kinases [10] = biological target: T10, panel of 468 kinases (Plasmodium falciparum, UniProt P61075); settings: PFPK5(P.falciparum); 1 μM; read-out: % control
T10 construct: purchased KINOMEscan (ScanMAX) service
T10 sequence (P61075 whole entry): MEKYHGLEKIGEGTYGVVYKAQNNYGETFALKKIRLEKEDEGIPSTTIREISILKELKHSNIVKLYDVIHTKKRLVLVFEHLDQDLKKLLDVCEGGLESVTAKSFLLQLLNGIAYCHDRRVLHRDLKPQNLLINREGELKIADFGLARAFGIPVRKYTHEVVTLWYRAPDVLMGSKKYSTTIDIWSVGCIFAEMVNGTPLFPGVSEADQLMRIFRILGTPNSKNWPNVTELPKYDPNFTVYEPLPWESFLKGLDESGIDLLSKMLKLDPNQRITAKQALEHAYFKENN

T1 sequence (O96017 whole entry): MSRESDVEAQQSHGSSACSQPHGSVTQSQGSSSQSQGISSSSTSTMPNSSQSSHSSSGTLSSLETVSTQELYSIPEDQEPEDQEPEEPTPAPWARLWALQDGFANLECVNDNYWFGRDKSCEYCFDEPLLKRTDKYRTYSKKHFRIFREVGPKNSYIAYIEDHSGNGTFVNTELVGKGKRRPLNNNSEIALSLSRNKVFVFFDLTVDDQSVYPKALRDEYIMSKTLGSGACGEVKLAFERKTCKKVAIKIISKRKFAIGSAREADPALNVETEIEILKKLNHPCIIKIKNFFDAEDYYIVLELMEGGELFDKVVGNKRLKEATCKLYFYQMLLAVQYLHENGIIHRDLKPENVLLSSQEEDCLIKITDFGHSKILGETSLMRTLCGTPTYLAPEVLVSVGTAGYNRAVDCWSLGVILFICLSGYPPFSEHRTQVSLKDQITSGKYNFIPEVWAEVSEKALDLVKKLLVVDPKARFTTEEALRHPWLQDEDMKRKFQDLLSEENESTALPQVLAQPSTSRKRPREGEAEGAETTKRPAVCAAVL

Structure (SMILES)	remaining binding at 1 µM (panel of 468 kinases [1]) [%]	remaining binding at 1 µM (panel of 468 kinases [2]) [%]	remaining binding at 1 µM (panel of 468 kinases [3]) [%]	remaining binding at 1 µM (panel of 468 kinases [4]) [%]	remaining binding at 1 µM (panel of 468 kinases [5]) [%]	remaining binding at 1 µM (panel of 468 kinases [6]) [%]	remaining binding at 1 µM (panel of 468 kinases [7]) [%]	remaining binding at 1 µM (panel of 468 kinases [8]) [%]	remaining binding at 1 µM (panel of 468 kinases [9]) [%]	remaining binding at 1 µM (panel of 468 kinases [10]) [%]
CNc1nc(Nc2ccc(C(=O)N3CCC(N4CCOCC4)CC3)c3c2OCO3)nc2[nH]cc(Cl)c12 [Compound 75, (7-((5-chloro-4-(methylamino)-7H-pyrrolo[2,3-d]pyrimidin-2-yl)amino)benzo[d][1,3]dioxol-4-yl)(4-morpholinopiperidin-1-yl)methanone]	0.95	99	41	100	100	98	7.3	7.6	70	65
CNc1nc(Nc2ccc(S(=O)(=O)N3CCC(N4CCOCC4)CC3)cc2OC)nc2[nH]cc(Cl)c12 [Compound 12, 5-chloro-N2-(2-methoxy-4-((4-morpholinopiperidin-1-yl)sulfonyl)phenyl)-N4-methyl-7H-pyrrolo[2,3-d]pyrimidine-2,4-diamine]	1.8	100	100	100	78	99	8.8	65	100	64
CNc1nc(Nc2ccc(P3(=O)CCN(C4CCOCC4)CC3)cc2OC)nc2[nH]cc(Cl)c12 [Compound 77, 4-(4-((5-chloro-4-(methylamino)-7H-pyrrolo[2,3-d]pyrimidin-2-yl)amino)-3-methoxyphenyl)-1-(tetrahydro-2H-pyran-4-yl)-1,4-azaphosphinane 4-oxide]	0.7	100	95	100	100	96	7	65	88	75
